The values below come from patent publication US20060073528A1, “Measurement methods” (priority 2004, published 2006).

Where “and” joins values, the source holds several entries; their conditions need not be identical. Identical values can stand only once. Like-named read-outs stand apart in the source and are kept apart here.

Data set [1] can be described thus: Lyophilized standard stocks reconstituted and analyzed by Hisep RP-HPLC (monomer to dimer conversion). It is filed as physicochemical. The settings on record: for Dimer area observed / Monomer area observed: single injections. On the procedure: All vials contained a total of 15 nmol. Two vials of each standard were reconstituted by adding 150 μL of 50% acetonitrile/0.01% TFA to make a 100 μM stock solution; the remaining vials were reconstituted with 300 μL to make 50 μM stocks. The stocks were further diluted to the working concentration of 5 μm and analyzed. […] The stability of these standards were monitored over time.

A short description of data set [2]: Sample stability of DM1-related impurities with DS-DM1-deJ591 in the autosampler (Hisep RP-HPLC).
Method: The sample was analyzed at times t=0 h, 12 h, and 24 h. Sample stability was determined by comparing the area percent (area %) values of the stored sample to that of the initially-prepared solution (t=0 h).
Where [3] appears, read: 50 μM stock - lyophilized, average per vial.
Where [4] appears, read: 100 μM stock - lyophilized, average per vial.
[5] abbreviates: 100 μM stock - lyophilized, vials 1 and 2.

With `COc1cc2cc(c1Cl)N(C)C(=O)C[C@H](OC(=O)[C@H](C)N(C)C(=O)CCS)[C@]1(C)O[C@H]1[C@H](C)[C@@H]1C[C@@](O)(NC(=O)O1)[C@H](OC)/C=C/C=C(\C)C2` [DM1 monomer], the “DM1 monomer to dimer conversion after lyophilization” value in data set [1] (15 nmol vials lyophilized, reconstituted in 50% acetonitrile/0.01% TFA to 100 μM or 50 μM, diluted to 5 μM) is given as “significant DM1 monomer→dimer conversion”. Further, the “Dimer area observed, Average” value was 10669 in data set [1] (setting [3]); 10086 and 10158 in data set [1] (setting [4]). Further, the “Monomer area observed, Average” value in data set [1] (setting [3]) is 476235 and 412633; in data set [1] (setting [4]), 391081 and 417523; in data set [1] (100 μM stock - untreated), 459843. Further, the Dimer area observed in data set [1] (50 μM stock - lyophilized) is 10097 and 10809 and 11100; in data set [1] (setting [5]), 10508 and 8635 and 11114 and 10029 and 10666 and 9780. In addition, the Monomer area observed was 476970 and 475075 and 476660 and 415292 and 411974 and 410632 in data set [1] (50 μM stock - lyophilized, vials 1 and 2); 392043 and 391526 and 389675 and 418902 and 418204 and 415463 in data set [1] (setting [5]); 459407 and 460238 and 459885 in data set [1] (100 μM stock - untreated). In addition, the figures for the Average peak area in data set [2] (t = 0 h), in data set [2] (t = 12 h) and in data set [2] (t = 24 h) were 223667, 217293 and 214265, respectively.
On to `COc1cc2cc(c1Cl)N(C)C(=O)CC(OC(=O)C(C)N(C)CC(=O)CCSSC(C)CCC(=O)O)C1(C)OC1C(C)C1CC(O)(NC(=O)O1)C(OC)C=CC=C(C)C2` (stereo not shown) [DM1-TPA adduct, DM1-thiopentanoic acid adduct], for which the values for the Average peak area in data set [2] (t = 0 h), in data set [2] (t = 12 h) and in data set [2] (t = 24 h) were 246302, 245410 and 245126, respectively.
Regarding `CC(CCC(=O)O)SSc1ccccn1` (stereo not shown) [PPA, 4-(2-pyridyldithio) pentanoic acid], the “% remaining area counts relative to t = 0 h” value (12 h) is recorded as 96.83% and the “% remaining area counts relative to t = 0 h” value (24 h) worked out at 98.20%. Besides, the Average peak area in data set [2] (t = 0 h) is listed as 15881; in data set [2] (t = 12 h), 15377; in data set [2] (t = 24 h) it was 15595.
For the compound `S=c1cccc[nH]1` [mercaptopyridine], the Average peak area stood at 15446 in data set [2] (t = 0 h), 15654 in data set [2] (t = 12 h) and 15620 in data set [2] (t = 24 h).
